Usually melting point stands for the temperature, or range, at which the solid turns liquid. By mortality is commonly meant the share of the test organisms that died.

The results in this text go back to US9615576B2, “Pesticidal compositions and processes related thereto” (Dow AgroSciences LLC, priority 2011, dated 2017).

For data set [1], the system named is Corn Earworm (CEW) (Helicoverpa zea). Briefly: Bioassays on Corn Earworm (CEW), 128-well diet tray assay. The class given is in vivo. The conditions noted are these: 168 h, 50 μg/cm^2 test compound on artificial diet, second instar larvae, 25° C., five to seven days, average of eight wells, read-out: CEW Rating (% mortality). The essentials: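 Second-instar larvae (one to five per well) placed on artificial diet treated with 50 μg/cm^2 compound in 90:10 acetone-water, dried; eight wells per compound. Held at 25° C, 14:10 light-dark, five to seven days; percent mortality averaged over wells.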

In data set [2] the test system is Beet Armyworm (BAW) (Spodoptera exigua). Briefly: Bioassays on Beet Armyworm (BAW), 128-well diet tray assay. The class given is in vivo. The conditions noted are these: 168 h, 50 μg/cm^2 test compound on artificial diet, second instar larvae, 25° C., five to seven days, average of eight wells, read-out: BAW Rating (% mortality). The essentials:
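Second-instar larvae (1–5 per well) on artificial diet surface-treated with 50 μg/cm^2 compound applied in 90:10 acetone-water and dried; eight wells per compound. Held 5–7 days at 25° C., 14:10 light-dark. Percent mortality scored per well and averaged over eight wells.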

`NC(=O)c1ccc(/C=C/C(c2cc(Cl)cc(Cl)c2)C(F)(F)F)cc1` (stereo not drawn) [AC2]: the melting point was 110 to 112 °C.

In the case of `Cc1cc(/C=C/C(c2cc(Cl)cc(Cl)c2)C(F)(F)F)ccc1C(=O)NCc1nnc(C2CC2)o1` (stereo not drawn) [AC89, (E)-N-((5-cyclopropyl-1,3,4-oxadiazol-2-yl)methyl)-4-(3-(3,5-dichlorophenyl)-4,4,4-trifluorobut-1-en-1-yl)-2-methylbenzamide], the mortality at 50 µg/cm2 in data set [1] and in data set [2] was 50 to 100% each time.

With `O=C(CNC(=S)c1ccc(/C=C/C(c2cc(Cl)c(Cl)c(Cl)c2)C(F)(F)F)cc1Br)NCC(F)(F)F` (stereo not drawn) [AC91, (E)-2-(2-bromo-4-(4,4,4-trifluoro-3-(3,4,5-trichlorophenyl)but-1-en-1-yl)phenylthioamido)-N-(2,2,2-trifluoroethyl)acetamide], the mortality at 50 µg/cm2 in data set [1] and in data set [2] was 50 to 100% in each case.

`O=C(NCc1ccc(/C=C/C(c2cc(Cl)c(Cl)c(Cl)c2)C(F)(F)F)cc1Cl)C1CC1` (stereo not drawn) [CC11]: the mortality at 50 µg/cm2 in data set [1] and in data set [2] was 50 to 100% each time.

Consider `FC(F)(F)c1cc(C(/C=C/c2ccc(-n3cncn3)cc2)C(F)(F)F)cc(C(F)(F)F)c1` (stereo not drawn) [DC16], for which the mortality at 50 µg/cm2 in data set [1] and in data set [2] was 50 to 100% throughout.

For `O=C(NCc1ccc(Cl)nc1)c1ccc(/C=C/C(c2cc(Cl)c(Cl)c(Cl)c2)C(F)(F)F)cc1Br` (stereo not drawn) [AC31], the mortality at 50 µg/cm2 in data set [1] and in data set [2] was 50 to 100% throughout.

Consider `O=C(c1ncnn1-c1ccc(/C=C/C(c2cc(Cl)cc(Cl)c2)C(F)(F)F)cc1)C1CC1` (stereo not drawn) [DC26], for which the mortality at 50 µg/cm2 in data set [1] and in data set [2] was 0% throughout.

In the case of `Cc1cc(/C=C/C(c2cc(Cl)cc(Cl)c2)C(F)(F)F)ccc1C(=O)NCc1nccn1C` (stereo not drawn) [AC50], the mortality at 50 µg/cm2 was 0% in data set [1] and 50 to 100% in data set [2].

As to `Cc1ncn(-c2ccc(/C=C/C(c3cc(Cl)cc(Cl)c3)C(F)(F)F)cc2C#N)n1` (stereo not drawn) [DC36], the mortality at 50 µg/cm2 in data set [1] and in data set [2] was 0% throughout.

`O=C(NC1CCc2cc(/C=C/C(c3cc(Cl)c(Cl)c(Cl)c3)C(F)(F)F)ccc21)C1CC1` (stereo not drawn) [BC6]: the mortality at 50 µg/cm2 in data set [1] and in data set [2] was 50 to 100% each time.

Regarding `FC(F)(F)c1cc(/C=C/C(c2cc(Cl)cc(Cl)c2)C(F)(F)F)ccc1-n1cncn1` (stereo not drawn) [DC51], the mortality at 50 µg/cm2 in data set [1] and in data set [2] was 50 to 100% each time.

With `Cc1cc(/C=C/C(c2cc(Cl)c(Cl)c(Cl)c2)C(F)(F)F)cc(C#N)c1-n1cncn1` (stereo not drawn) [DC45], the mortality at 50 µg/cm2 in data set [1] and in data set [2] was 50 to 100% in each case.

As to `O=C(NCc1ccc(/C=C/C(c2cc(Cl)c(Cl)c(Cl)c2)C(F)(F)F)cc1)c1ccnc(Cl)c1` (stereo not drawn) [CC13], the mortality at 50 µg/cm2 in data set [1] and in data set [2] was 50 to 100% throughout.

Consider `Cc1cc(/C=C/C(c2cc(Cl)cc(Cl)c2)C(F)(F)F)ccc1C(=S)NCc1ccc(Cl)nc1` (stereo not drawn) [AC115, (E)-N-((6-chloropyridin-3-yl)methyl)-4-(3-(3,5-dichlorophenyl)-4,4,4-trifluorobut-1-en-1-yl)-2-methylbenzothioamide], for which the mortality at 50 µg/cm2 in data set [1] and in data set [2] was 50 to 100% in each case.
